# Values quoted from earlier work as cited in patent publication US9617270B2, “Cytotoxic benzodiazepine derivatives” (priority 2012, dated 2017).
# Conditions: Phase I clinical evaluation
smiles,measurement,setting,value
C=C1C[C@H]2C=Nc3cc(OCCCOc4cc5c(cc4OC)C(=O)N4CC(=C)C[C@H]4C=N5)c(OC)cc3C(=O)N2C1 [SJG-136],adverse effects noted,,"vascular leak syndrome, peripheral edema, liver toxicity and fatigue"
same,maximum tolerated dose,,45 μg/m^2
same,DNA damage in circulating lymphocytes,circulating lymphocytes,noted at all doses
